Structures are written as SMILES.

Here are results for seven molecules from ChEMBL document CHEMBL1132513, “Manipulation of the C(22)-C(27) region of rapamycin: stability issues and biological implications” (Bioorg Med Chem Lett, 1999).

Data set [1] in a line: The activity in the LAF assay is best expressed as a ratio of the rapamycin IC50 (1-9 nM) /analogue IC50 (R/A). Format: functional.
Data set [2] in a line: Ability to bind to FK506 binding protein via its inhibition of peptidyl prolyl cis-trans isomerase activity (PPIase) inherent to FKBP.
The species entered for data set [3] is Mus musculus. Briefly: In vitro ability to inhibit lymphoproliferation (LAF) in vitro using cells from the thymus of normal BALB/c mice. It is filed as functional.
Data set [4] is described as follows: Half life was determined. Format: ADME. As to conditions: rat.
Data set [5] relates to Mus musculus. Briefly: Ability to prevent transplantation rejection in vivo in mouse skin graft model. Format: functional.

Broadly, the IC50 is the concentration at which inhibition is half-maximal. Lower therefore signals greater potency in that assay. In the case of `CCC12CCCCN1C(=O)C(=O)[C@]1(O)O[C@@H](CC[C@H]1C)C[C@H](OC)/C(C)=C/C=C/C=C/[C@@H](C)C[C@@H](C)C(=O)[C@H](OC)[C@H](O)/C(C)=C/[C@@H](C)C(=O)C[C@@H]([C@H](C)C[C@H]1CC[C@H](O)[C@H](OC)C1)OC2=O` (stereo not given in full), in data set [1], the Ratio was determined as 0.07. Besides, the figures for the IC50 (in data set [2]; in the data set filed under Mus musculus [3]) were 950 nM and 140 nM, respectively.

For orientation: half-life means how long it takes for the measured level to halve. As to `CO[C@H]1C[C@@H]2CC[C@@H](C)[C@@](O)(O2)C(=O)C(=O)N2CCCCC2(C)C(=O)O[C@H]([C@H](C)C[C@H]2CC[C@H](O)[C@@H](OC)C2)CC(O)[C@H](C)/C=C(\C)[C@@H](O)[C@@H](OC)C(=O)[C@H](C)C[C@H](C)/C=C/C=C/C=C/1C` (stereo not given in full), the Ratio in data set [1] turned out to be 0.23. The half-life in data set [4] is 14.6 h. The IC50 was determined as 150 nM in data set [2] and 9.9 nM in the data set filed under Mus musculus [3]. In the data set on Mus musculus [5], this molecule displayed a Survival of 7.

Take `CO[C@H]1C[C@@H]2CC[C@@H](C)[C@@](O)(O2)C(=O)C(=O)N2CCCC[C@H]2C(=O)O[C@H]([C@H](C)C[C@H]2CC[C@H](O)[C@@H](OC)C2)C[C@@H](OC(C)=O)[C@H](C)/C=C(\C)[C@@H](O)[C@@H](OC)C(=O)[C@H](C)C[C@H](C)/C=C/C=C/C=C/1C`: in data set [1], the Ratio came out at 0.08. This molecule also showed a half-life in data set [4] of 34 h. The molecule also came in with an IC50 in the data set filed under Mus musculus [3] of 99 nM.

In the case of `CO[C@H]1C[C@@H]2CC[C@@H](C)[C@@](O)(O2)C(=O)C(=O)N2CCCC[C@H]2C(=O)O[C@H]([C@H](C)C[C@H]2CC[C@H](O)[C@@H](OC)C2)CC(O)[C@H](C)/C=C(\C)[C@@H](O)[C@@H](OC)C(=O)[C@H](C)C[C@H](C)/C=C/C=C/C=C/1C` (stereo not given in full), the Ratio in data set [1] worked out at 1.3. The molecule further gave a half-life in data set [4] of 17.5 h. The IC50 in data set [2] was 22 nM; in the data set listed under Mus musculus [3] it was 3.7 nM. Further, the “Skin Graft Survival” value with Mus musculus [5] is on record as 8.5.

Consider `CO[C@H]1C[C@@H]2CC[C@@H](C)[C@@](O)(O2)C(=O)C(=O)N2CCCCC2(C)C(=O)O[C@H]([C@H](C)C[C@H]2CC[C@H](O)[C@@H](OC)C2)CC(=O)[C@H](C)/C=C(\C)[C@@H](O)[C@@H](OC)C(=O)[C@H](C)C[C@H](C)/C=C/C=C/C=C/1C` (stereo not given in full), for which, in data set [1], the Ratio turned out to be 0.42. Moreover, in data set [4], the half-life was 38.4 h. The results for the IC50 (in data set [2]; in the data set filed under Mus musculus [3]) were 95 nM and 23 nM, respectively. Further, in the data set with Mus musculus [5], the Survival is 9.33.

In the case of `CO[C@H]1C[C@@H]2CC[C@@H](C)[C@@](O)(O2)C(=O)C(=O)N2CCCC[C@H]2C(=O)O[C@H](C[C@H](O)[C@H](C)C[C@@H]2CC[C@@H](O)[C@H](OC)C2)[C@H](C)/C=C(\C)[C@@H](O)[C@@H](OC)C(=O)[C@H](C)C[C@H](C)/C=C/C=C/C=C/1C`, the Ratio in data set [1] is 0.42. Further, in data set [4], the half-life was 21.6 h. The IC50 came to 310 nM in data set [2] and 16 nM in the data set listed under Mus musculus [3]. In the data set on Mus musculus [5], this molecule came in with a Survival of 7.

`CO[C@H]1C[C@@H]2CC[C@@H](C)[C@@](O)(O2)C(=O)C(=O)N2CCCC[C@H]2C(=O)O[C@H]([C@H](C)C[C@@H]2CC[C@@H](O)[C@H](OC)C2)CC(=O)[C@H](C)/C=C(\C)[C@@H](O)[C@@H](OC)C(=O)[C@H](C)C[C@H](C)/C=C/C=C/C=C/1C` [SIROLIMUS]: in data set [4], the half-life is 13 h. In addition, the IC50 in data set [2] was 15 nM; in the data set filed under Mus musculus [3], 3 nM. Further, the “Skin Graft Survival” value in the data set on Mus musculus [5] turned out to be 12.
